In PMC9354954, “Assessing Bioavailability and Bioactivity of 4-Hydroxythiazolidine-2-Thiones, Newly Discovered Glucosinolate Degradation Products Formed During Domestic Boiling of Cabbage” (Frontiers in Nutrition, 2022):

Columns and labels:
HepG2 = system: HepG2; design: method as in PMID 14578469; details: HepG2, 72 h of incubation time; read-out: IC50 (50% inhibition of cell growth); cited from earlier work
[1] = cited from earlier work
endothelial cells = details: cited from earlier work
[2] = system: cultured hepatocytes from human liver transplants; details: range of 10 μM and 50 μM; cited from earlier work
[3] = system: Nrf2 target gene expression in alveolar macrophages and bronchial epithelial cells; details: intervention with 150 μM; cited from earlier work
[4] = design: method as in PMID 8000299, PMID 9865427; details: 10–12 h urine after consumption of horseradish or a mustard paste; cited from earlier work
[5] = system: NAD(P)H dehydrogenase quinone 1 (NQO1); experiment: NQO1 activity in HepG2 cells; format: cell-based, human; details: 2 μM, 24 h, negative control 145 ± 8
Procedure: (§1) The effect of allyl HTT or 4-MSOB HTT on NAD(P)H dehydrogenase quinone 1 (NQO1) activity was tested for HepG2 cells and HCT116 pTRAF cells. HCT116 pTRAF is a cell line that was transfected with the pTRAF^Nrf2/HIF/NFκB [Johansson et al. ([29])], as described by Kipp et al. ([30]). HCT116 pTRAF cells were cultivated in McCoy's 5A medium + 1% penicillin/streptomycin + 10% FBS + 1% GlutaMAX + 0.2 mg/mL hygromycin B. HepG2 cells in RPMI medium were seeded in a 6-well-plate (sterile, Sarsted, Nümbrecht, Germany) with a density of 350,000 cells/well, and HCT116 pTRAF cells in culture medium without hygromycin B with a density of 100,000 cells/well. After 48 h of incubation under cell culture conditions, the medium was exchanged with the fresh medium as a negative control and a medium with concentrations of 1 μM and 100 μM of allyl HTT or 4-MSOB HTT. Medium containing 2 μM auranofin was used as a positive control. After 24 h of incubation under cell culture conditions, NQO1 activity was analyzed according to Müller et al. ([31]), and the results were reported as mean ± SD. Additionally, the t-test for independent samples per variable was performed to test if concentration-dependent differences exist.

[6] = system: NAD(P)H dehydrogenase quinone 1 (NQO1); experiment: NQO1 activity in HCT116 pTRAF cells; format: cell-based; details: 2 μM, 24 h, negative control 51 ± 5
Procedure: as §1

[7] = Antioxidant potential, ABTS assay; details: compared to compound free blank
Procedure: (§2) To evaluate the potential of allyl HTT and 4-MSOB HTT to act as antioxidants, ABTS and DPPH were used as model radicals and Trolox as reference antioxidants based on Shalaby and Shanab ([28]). In total, 1.5 mg of ABTS and 0.26 mg potassium peroxodisulfate were dissolved in 4 mL of pure water and incubated in the dark overnight at room temperature. Afterward, 36 mL of MeOH were added to obtain the fresh ABTS working solution. In the case of the DPPH assay, 1.1 mg of DPPH were dissolved in 4 mL of MeOH and incubated for 2 h in the dark at 4°C, followed by the addition of 36 mL of MeOH to obtain the fresh DPPH working solution. Standards of Trolox, allyl HTT, and 4-MSOB HTT were prepared in water/MeOH (90/10, v/v%) at concentrations in the range of 6.25–100 μM. To detect the antioxidant potential, 100 μL of standard or water/MeOH (90/10, v/v%) as control were added to 1,000 μL of ABTS or DPPH working solution, and the extinction was measured directly after mixing and after 6 min of incubation in the dark with a spectrometer (UviLine 9100, Schott Instruments, Mainz, Germany) at 734 nm in the case of ABTS assay and 515 nm in DPPH assay (each prepared as duplicate). The results are reported as mean ± SD of the reduction of the extinction compared to the control.

[8] = Antioxidant potential, DPPH assay; details: compared to compound free blank
Procedure: as §2

[9] = design: method as in doi:10.1002/14356007.a09_001; details: cited from earlier work
GSK-3α = system: GSK-3α; design: method as in PMID 31553649; details: read-out: IC50 (50% inhibition) to inhibit isoform GSK-3α; cited from earlier work
GSK-3β = system: GSK-3β; design: method as in PMID 31553649; details: read-out: IC50 (50% inhibition) to inhibit GSK-3β; cited from earlier work

C[S+]([O-])CCCCN=C=S (stereo not shown) [sulforaphane]
IC50 (HepG2): 13 µM | bioavailability [1]: approximately 40% | concentrations inducing apoptosis and cytotoxicity (endothelial cells): 20 to 40 µM | cytotoxicity [2]: no significant cytotoxicity | stimulation in Nrf2 target gene expression [3]: no stimulation

C=CCN=C=S [allyl ITC, allyl isothiocyanate]
IC50 (HepG2): 36 µM | recovery of formed allyl ITC metabolites in urine [4]: 42–54%

CC(=O)OC[C@H]1O[C@@H]([S-])[C@H](OC(C)=O)[C@@H](OC(C)=O)[C@@H]1OC(C)=O.CCP(CC)CC.[Au+] [auranofin, 1-thio-β-D-glucopyranosatotriethyl phosphine gold-2,3,4,6-tetraacetate]
NQO1 activity [5]: 153 ± 4 mU/mg protein | NQO1 activity [6]: 114 ± 7 mU/mg protein

Cc1c(C)c2c(c(C)c1O)CCC(C)(C(=O)O)O2 (racemic) [Trolox, (±)-6-hydroxy-2,5,7,8-tetramethylchromane-2-carboxylic acid, reference compound]
Relative signal reduction of the extinction value of the radical ABTS ([7]; 6.25 µM): 1.3 ± 0.4% | Relative signal reduction of the extinction value of the radical ABTS ([7]; 12.5 µM): 1.9 ± 0.4% | Relative signal reduction of the extinction value of the radical ABTS ([7]; 25 µM): 9.3 ± 0.5% | Relative signal reduction of the extinction value of the radical ABTS ([7]; 50 µM): 16.5 ± 0.4% | Relative signal reduction of the extinction value of the radical ABTS ([7]; 100 µM): 31.2 ± 0.4% | Relative signal reduction of the extinction value of the radical DPPH ([8]; 6.25 µM): 0.8 ± 0.3% | Relative signal reduction of the extinction value of the radical DPPH ([8]; 12.5 µM): 2.8 ± 0.3% | Relative signal reduction of the extinction value of the radical DPPH ([8]; 25 µM): 3.5 ± 0.4% | Relative signal reduction of the extinction value of the radical DPPH ([8]; 50 µM): 8.8 ± 0.6% | Relative signal reduction of the extinction value of the radical DPPH ([8]; 100 µM): 17.5 ± 1.5%

CN1CCSC1=S [N-methyl-2-thiazolidinethione]
toxicity [9]: low toxicity

OC1(c2ccccc2)CSC(=S)N1Cc1ccncc1 (stereo not shown) [COB-187]
IC50 (GSK-3α): 0.022 µM | IC50 (GSK-3β): 0.011 µM
